Results on three compounds are retold here after patent publication US7820667B2, “Methods of treating hypertension” (Daiichi Sankyo Company, Limited, priority 2005, dated 2010).

The conditions of series [1]: as reported in Japanese Patent Public Disclosure No. 25323/84; cited from earlier work.
Series [2] relates to DOCA-salt hypertension rats. Put plainly: Biopterin (BP) in urine by HPLC in DOCA-salt hypertension rats. In kind it is in vivo, Sprague-Dawley rats. As to conditions: BH4 10 mg/kg b.w./day orally. From the text: (§1) One kidney was removed from each of 8-week-old Sprague-Dawley rats (supplied from Charles River) except for a control group.
Series [3] concerns DOCA-salt SHRs. As to conditions: in vivo, po, 10 mg/kg/day.
Description: One kidney was removed from 8-week old SHRs (supplied from Charles River) except for a control group. Then, the animals were divided into the following three experimental groups. • 1) A group given drinking water only (control group); sample size n=8; • 2) A group of DOCA-salt SHRs prepared by giving 30 mg/kg b.w. of deoxycorticosterone acetate (DOCA) subcutaneously once a week and 1% saline as drinking water from one week after nephrectomy (DOCA group); n 4; • 3) A group of DOCA-salt SHRs administered BH4 (10 mg/kg b.w./day) orally (DOCA+BH4 group); n=6.
Urine was collected for 24 hours using a metabolic cage at the start of experiment and after 2, 3, 4, 5 and 6 (at the termination of the observation period) weeks. At the termination of the observation period, blood sample was collected from abdominal aorta under anesthesia with Phenobarbital.
Biopterin (BP), a metabolite of BH4, was measured by a HPLC according to the procedure of Fukushima and Nixon. The effects of BH4 administration are evaluated on the basis of change of BP level in urine.
The measured values were expressed as means±standard error and evaluated statistically using two-way ANOVA test. In the following analyses, the significant level sets p<0.05.
The test system of series [4] is DOCA-salt SHRs. Nature of the series: Histopathological findings in renal tissues of DOCA-salt SHR. In kind it is in vivo. An excerpt:
After collecting urine and measuring blood pressure at 6 weeks, the animals was incised under anesthesia, exsanguinated from abdominal aorta and perfused with physiological saline via this site. The isolated kidney was fixed in a 10% formaldehyde solution, embedded in paraffin, then sliced to 4 μm in thickness by a microtome. Samples were stained with hematoxylin/eosin (HE) and periodic acid-Shiff. The incidences of histopathological findings on necrotizing glomerulitis and necrotizing arteriolitis were compared among the groups.

Series [5] deals with DOCA-salt hypertension rats. Put plainly: Blood pressure by tail-cuff method in DOCA-salt hypertension rats. In kind it is in vivo, Sprague-Dawley rats. As to conditions: BH4 10 mg/kg b.w./day orally. How it is done:
One kidney was removed from each of 8-week-old Sprague-Dawley rats (supplied from Charles River) except for a control group. […] Blood pressure was measured by the tail-cuff method at the start of experiment and 2, 4 and 5 weeks.

Series [6] is described as follows: Body weight of DOCA-salt hypertension rats. It is filed as in vivo, Sprague-Dawley rats. The note with it: for Body weight: DOCA-salt hypertension rats, BH4 10 mg/kg b.w./day orally.
Description: as §1

For a further series, the system named is e-NOS mRNA. Nature of the series: Measurement of NOS mRNA expression in renal tissues (RT-PCR, Southern hybridization). It is filed as in vivo, Sprague-Dawley rats. As to conditions: renal cortex, DOCA+BH4 group as compared with DOCA group, normalized against MDH, FIG. 4. On the procedure: as §1
Extraction of RNA from renal tissues was performed by the guanidium/cesium chloride extraction method.
Namely, a small amount of tissues collected from renal cortex of the isolated kidney was added immediately to a lysis solution 4M guanidinium thiocyanate and homogenized by a glass/Teflon homogenizer. This lysate was overlaid on 5.7M cesium chloride and centrifuged at 80,000 rpm for 2 hours, then the precipitate was dissolved in 0.1% diethyl pyrocarbonate (DEP) solution. This solution was precipitated with 2.5M ammonium acetate and ethanol at −20° C. for one hour and centrifuged at 10,000 rpm at 4° C. for 20 minutes to give a precipitate. […]
Specifically, the RT reaction solution was added to a mixture of 5′- and 3′-primers for each of e-NOS to be detected and for malate dehyadrogenase (MDH) used as an internal standard, PCR buffer, 2.5 mM dNTP mixed solution and Taq DNA polymerase. […]
PCR products were electrophoresed on 5% polyacrylamide gel and NOS mRNA expression was measured by Southern hybridization.
Specifically, the PCR reaction solution was electrophoresed on 5% polyacrylamide and then, the gel was transferred to membrane filters. […] Then, autoradiography was run at −70° C. for several hours and the exposed autoradiograms were analyzed by a densitometer. […]

For series [7], the system named is DOCA-salt SHRs. Put plainly: Blood pressure by tail-cuff method in DOCA-salt SHR. It is filed as in vivo. The note with it: BH4 10 mg/kg b.w./day orally. On the procedure: Blood pressure was measured by the tail-cuff method at the start of experiments and after 2, 3, 4, 5 and 6 weeks.
The subject of series [8] is DOCA-salt hypertension rats. Put plainly: NO2/NO3 in urine (Griess method) in DOCA-salt hypertension rats. It is filed as in vivo, Sprague-Dawley rats. The note with it: BH4 10 mg/kg b.w./day orally. On the procedure:
One kidney was removed from each of 8-week-old Sprague-Dawley rats (supplied from Charles River) except for a control group. […] The measurement was carried out using Nitrate-Nitrite assay kit, (kit No. 780001, Cyman Chemical Company) according to the Griess method. The values of NO2/NO3 in urine means the activity of NOS, namely, higher the value, higher the activity.
Background: Griess reagent forms a coloured azo dye with nitrite.

The next series deals with endothelial NOS (e-NOS). Nature of the series: Immunostaining of renal tissue NOS (anti-e-NOS antibody). In kind it is in vivo, Sprague-Dawley rats. As to conditions: renal tissues, DOCA-salt hypertension rats, BH4 10 mg/kg b.w./day orally, end of observation (5 weeks).
Description: as §1
(§2) The expression of endothelial NOS (e-NOS) and brain NOS (b-NOS) in renal tissues was examined in the sections of the isolated frozen renal tissues by immunostaining with anti-e-NOS and anti-b-NOS antibodies (Affinity Bioreagents), respectively.

The test system of a further series is brain NOS (b-NOS). Nature of the series: Immunostaining of renal tissue NOS (anti-b-NOS antibody). It is filed as in vivo, Sprague-Dawley rats. The note with it: renal tissues, DOCA-salt hypertension rats, BH4 10 mg/kg b.w./day orally, end of observation (5 weeks).
Description: as §1, §2

A further series concerns rats. Put plainly: Acute toxicity to rats. In kind it is in vivo.
[9] abbreviates: BH4 10 mg/kg b.w./day orally, kidney at 6 weeks.
[10] abbreviates: until termination of observation period.

With `C[C@H](O)[C@H](O)C1CNc2nc(N)[nH]c(=O)c2N1` (stereo partly drawn) [(6R,S)-5,6,7,8-tetrahydrobiopterin], the toxicity result in series [1] is reported as “only slightly toxic”.
Regarding `CC(O)C(O)C1CNc2nc(N)[nH]c(=O)c2N1` [BH4, (6R)-L-erythro-5,6,7,8-tetrahydrobiopterin], the “Change of BP in urine (in words)” value (in series [2]; in the series with DOCA-salt SHRs [3]) was “showed an increase in the value of BP with time” each time. Further, in the series with DOCA-salt SHRs [4] (setting [9]), the “Percentage (%) of incidences of histopathological findings in renal tissues: Necrotizing angiitis” value was determined as 3.34 ± 0.94%. For the same compound, in the series with DOCA-salt SHRs [4] (setting [9]), the “Percentage (%) of incidences of histopathological findings in renal tissues: Necrotizing glomerulitis” value is recorded as 2.47 ± 1.07%. Also, the “Histopathological findings (in words)” value in the series with DOCA-salt SHRs [4] (oral administration of BH4) is listed as “remarkably improved histopathological findings”. Also, the Blood pressure in [5] (Start) is reported as 105.72 mmHg; in [5] (Week 2) it was 120.54 mmHg; in series [5] (Week 4) it was 111.91 mmHg; in series [5] (Week 5) it was 107.78 mmHg; in the series on DOCA-salt SHRs [7] (Start), 130.22 mmHg; in the series with DOCA-salt SHRs [7] (Week 2), 133.60 mmHg. Further, the Blood pressure in the series on DOCA-salt SHRs [7] (Week 3) is 143.63 mmHg; with DOCA-salt SHRs [7] (Week 4), 150.90 mmHg; with DOCA-salt SHRs [7] (Week 5), 159.30 mmHg; in the series on DOCA-salt SHRs [7] (Week 6) it was 162.95 mmHg. Also, the “Change of blood pressure (in words)” value in series [5] (setting [10]) is “stayed at normal blood pressures”; in the series with DOCA-salt SHRs [7] (setting [10]), “showed the same blood pressures level as that of the control group”. The Body weight in series [6] (Start) turned out to be 383.40 g; in series [6] (Week 2), 386.40 ± 12.84 g; in [6] (Week 4) it was 431.20 ± 13.31 g; in series [6] (Week 5), 446.80 ± 15.81 g. Further, the “Body weight (in words)” value in [6] (control, DOCA and DOCA+BH4 groups compared) is “no significant difference”. Moreover, the “expression of e-NOS mRNA” value with e-NOS mRNA is given as “significantly enhanced”. In addition, in series [8], the “Change of NO2/NO3 in urine (in words)” value is reported as “showed an increase in the value”. The NO2/NO3 in urine in [8] (Start) was determined as 2.22 ± 0.7 µmol/day; in series [8] (Week 4) it was 2 ± 0.55 µmol/day; in series [8] (Week 5), 5.95 ± 1.9 µmol/day. In addition, the “expression of e-NOS in small vessels (immunostaining)” value in the series on endothelial NOS (e-NOS) was “comparable to the control group or slightly enhanced”. The “expression of b-NOS in macula densa (immunostaining)” value in the series on brain NOS (b-NOS) was “comparable to the control group or slightly enhanced”.
As for `C[C@H](O)[C@H](O)[C@H]1CNc2[nH]c(N)nc(=O)c2N1.Cl.Cl` [BH4 dihydrochloride], in the series on rats, the acute toxicity entry is reported as “more than 2 g/kg (b.w.)”.
